Reference: ChEMBL document CHEMBL3585318, “Effect of water solvation on the lipophilicity of isomeric pyrimidine-carboxamides” (Bioorg Med Chem, 2015)

Key:
Type in all cases: physicochemical
[1] = Lipophilicity, log D of the compound at pH 7.4 by UV/Vis spectroscopy based shake-flask method; settings: buffer
[2] = Partition coefficient of buffer-octanol system, logP of the compound by shake-flask method
[3] = Dissociation constant, pKa of the compound

SMILES | logD [1] | logP [2] | pKa [3]
CCNC(=O)c1nc(OC)cc(N(C)C)n1 | 1 | 1.1 | 2.9
O=C1CCCc2cccnc21 | 0.2 | 0.4 | 
CCNC(=O)c1cc(N(C)C)nc(OC)n1 | 1.6 | 1.7 | 3.8
O=C1CCCc2ncccc21 | 0.9 | 1.2 | 
O=C1CCCc2cnccc21 | 1 | 1.5 | 
CCNC(=O)c1cc(OC)nc(N(C)C)n1 | 2.6 | 2.5 | 2.4
O=C1CCCc2ccncc21 | 0.8 | 0.9 | 
